Values quoted from earlier work, collected in patent US20040248232A1, “Method for treating Alzheimer's dementia” (priority 2003, published 2004).

How the values were obtained:
purified rat cathepsin B = purified rat cathepsin B (Rattus norvegicus, UniProt P00787); conditions: at 10 uM; cited from earlier work
cathepsin B activity = molecular target: T1, cathepsin B activity (Mus musculus, UniProt P10605); conditions: intraperitoneal injection, mice; cited from earlier work
T1 construct: host or cells: mouse (liver implied by the sentence), endogenous, in vivo dosing
T1 sequence (P10605 80-333): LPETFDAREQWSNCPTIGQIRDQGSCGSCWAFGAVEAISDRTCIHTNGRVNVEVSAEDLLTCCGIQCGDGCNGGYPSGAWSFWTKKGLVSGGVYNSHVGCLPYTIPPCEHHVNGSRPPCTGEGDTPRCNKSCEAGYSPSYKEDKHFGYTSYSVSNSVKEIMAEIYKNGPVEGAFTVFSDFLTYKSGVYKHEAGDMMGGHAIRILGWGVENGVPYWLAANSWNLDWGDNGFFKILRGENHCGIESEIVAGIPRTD

cathepsin S [1] = molecular target: T2, cathepsin S (Homo sapiens, UniProt P25774); conditions: at micromolar levels; cited from earlier work
T2 sequence (P25774 115-331, species assumed): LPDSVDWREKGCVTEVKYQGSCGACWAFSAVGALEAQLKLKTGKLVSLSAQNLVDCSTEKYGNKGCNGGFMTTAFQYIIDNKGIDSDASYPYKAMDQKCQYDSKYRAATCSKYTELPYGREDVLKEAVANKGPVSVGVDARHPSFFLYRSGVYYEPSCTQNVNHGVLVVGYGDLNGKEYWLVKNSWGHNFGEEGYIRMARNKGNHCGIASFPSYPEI

purified rat cathepsin L = purified rat cathepsin L (Rattus norvegicus, UniProt P07154); conditions: cited from earlier work
Sequence of purified rat cathepsin L (P07154 114-334): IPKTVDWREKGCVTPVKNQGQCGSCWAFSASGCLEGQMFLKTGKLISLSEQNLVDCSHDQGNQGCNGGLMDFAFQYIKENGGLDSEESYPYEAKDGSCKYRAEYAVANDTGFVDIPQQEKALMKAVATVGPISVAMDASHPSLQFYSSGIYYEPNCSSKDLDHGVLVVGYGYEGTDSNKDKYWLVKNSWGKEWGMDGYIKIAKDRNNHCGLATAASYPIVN

[2] = molecular target: T3, cathepsin L activity in liver (Mus musculus, UniProt P06797); conditions: intraperitoneal injection, mice; cited from earlier work
T3 construct: host or cells: mouse liver (endogenous, in vivo dosing)
T3 sequence (P06797 114-334): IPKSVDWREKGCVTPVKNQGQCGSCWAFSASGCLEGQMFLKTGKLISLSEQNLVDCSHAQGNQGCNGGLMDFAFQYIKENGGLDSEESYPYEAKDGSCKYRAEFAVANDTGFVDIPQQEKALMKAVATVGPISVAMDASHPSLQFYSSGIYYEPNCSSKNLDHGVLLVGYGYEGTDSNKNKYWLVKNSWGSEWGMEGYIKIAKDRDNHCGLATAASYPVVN

Colon-26 cancer cells = conditions: intravenous or p.o. administration, mice; cited from earlier work
[3] = test system: human melanoma cells A375; conditions: intravenous or p.o. administration, mice; cited from earlier work
cathepsin K = molecular target: T4, cathepsin K (Homo sapiens, UniProt P43235); conditions: at micromolar levels; cited from earlier work
T4 sequence (P43235 115-329): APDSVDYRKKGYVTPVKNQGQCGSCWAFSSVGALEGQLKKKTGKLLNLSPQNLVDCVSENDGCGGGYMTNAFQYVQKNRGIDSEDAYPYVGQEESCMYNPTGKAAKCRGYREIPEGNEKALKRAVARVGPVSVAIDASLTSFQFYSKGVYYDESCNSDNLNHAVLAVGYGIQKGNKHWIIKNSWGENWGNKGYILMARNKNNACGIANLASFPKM

cathepsin C = cathepsin C (Homo sapiens, UniProt P53634); conditions: at micromolar levels; cited from earlier work
Sequence of cathepsin C (P53634 25-463): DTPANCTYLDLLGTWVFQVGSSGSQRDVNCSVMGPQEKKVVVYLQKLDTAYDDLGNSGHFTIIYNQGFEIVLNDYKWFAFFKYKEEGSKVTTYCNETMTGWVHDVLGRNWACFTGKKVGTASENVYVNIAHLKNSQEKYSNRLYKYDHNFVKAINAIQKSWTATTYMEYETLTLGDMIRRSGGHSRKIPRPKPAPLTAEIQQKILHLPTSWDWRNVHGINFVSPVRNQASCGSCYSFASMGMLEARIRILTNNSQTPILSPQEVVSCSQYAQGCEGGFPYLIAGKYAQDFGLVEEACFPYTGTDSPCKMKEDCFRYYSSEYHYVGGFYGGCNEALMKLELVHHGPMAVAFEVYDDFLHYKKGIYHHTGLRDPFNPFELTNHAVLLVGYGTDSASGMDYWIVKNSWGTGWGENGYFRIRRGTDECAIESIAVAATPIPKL

[4] = test system: cancer induced osteoporosis; conditions: intravenous or p.o. administration, mice; cited from earlier work
[5] = molecular target: T5, cathepsin L activity in DLD-1 cells (Homo sapiens, UniProt P07711); conditions: cited from earlier work
T5 construct: host or cells: DLD-1 cells (endogenous)
T5 sequence (P07711 114-333): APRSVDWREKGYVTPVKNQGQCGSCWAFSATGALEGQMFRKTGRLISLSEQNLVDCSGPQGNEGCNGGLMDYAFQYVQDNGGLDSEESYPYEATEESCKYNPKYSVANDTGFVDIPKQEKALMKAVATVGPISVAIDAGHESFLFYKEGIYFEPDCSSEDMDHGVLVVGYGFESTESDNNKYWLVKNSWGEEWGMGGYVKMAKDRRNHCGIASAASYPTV

cathespin B = cathespin B (Homo sapiens, UniProt P07858); conditions: cited from earlier work
cathepsin L = cathepsin L (Homo sapiens, UniProt P07711); conditions: relative to recombinant human cathepsin B; cited from earlier work
Sequence of cathepsin L (P07711 114-333, species assumed): as the sequence (P07711 114-333) above

cathepsin S [6] = molecular target: T2, cathepsin S; conditions: relative to recombinant human cathepsin B; cited from earlier work
[7] = molecular target: recombinant human cathepsin B (Homo sapiens, UniProt P07858); conditions: cited from earlier work

Sequence of purified rat cathepsin B (P00787 80-333): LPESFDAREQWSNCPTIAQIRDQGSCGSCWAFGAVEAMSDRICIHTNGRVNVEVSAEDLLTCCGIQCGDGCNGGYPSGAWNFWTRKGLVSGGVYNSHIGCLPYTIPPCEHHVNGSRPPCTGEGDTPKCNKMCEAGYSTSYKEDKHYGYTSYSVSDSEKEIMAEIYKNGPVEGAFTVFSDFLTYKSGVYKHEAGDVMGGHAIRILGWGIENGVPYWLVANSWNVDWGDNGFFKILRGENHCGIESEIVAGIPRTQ

## CN(C)C(=O)[C@H](Cc1ccccc1)NC(=O)C1OC1C(=O)NCCc1ccccn1 (stereo in doubt) [CLIK-148]
Purified rat cathepsin B
  effect on purified rat cathepsin B activity: no effect
Cathepsin B activity
  cathepsin B activity: no effect
Cathepsin S [1]
  activity on cathepsin S: minimal activities
Purified rat cathepsin L; at 1 uM
  inhibition of purified rat cathepsin L activity: completely inhibited
Purified rat cathepsin L
  level at which purified rat cathepsin L activity is inhibited: submicromolar levels
[2]
  cathepsin L activity in liver: dose dependently inhibited
Colon-26 cancer cells
  bone metastasis of Colon-26 cancer cells: blocked bone metastasis
[3]
  bone metastasis of human melanoma cells A375: blocked bone metastasis
Cathepsin K
  activity on cathepsin K: minimal activities
Cathepsin C
  activity on cathepsin C: minimal activities
[4]
  cancer induced osteoporosis: blocked cancer induced osteoporosis

## CC(C)C[C@H](NC(=O)[C@H]1CCCN1C#N)C(=O)OCc1ccccc1 [1-cyano-(D)-prolylleucine benzyl ester]
[5]
  cathepsin L activity in DLD-1 cells: completely inhibited
Cathespin B
  activity on cathespin B: minimal activity

## Cc1cccc(C[C@H](NC(=O)c2ccc(F)cc2F)C(=O)N[C@@H](C#N)COCc2cccc(C(=O)O)c2)c1 [N-[2-[(3-Carboxyphenyl)methoxyl-1-(S)-cyanoethyl]-3-methyl-N-(2,4-difluorobenzoyl)-L-phenylalaninamide]
Cathepsin L
  fold less potent in blocking cathepsin L than cathepsin B: approximately 100 fold
Cathepsin S [6]
  fold less potent in blocking cathepsin S than cathepsin B: approximately 100 fold
[7]
  recombinant human cathepsin B activity: inhibit
